Data reported in patent publication US6451307B1, “3′-exonuclease, production and use thereof” (Aventis Research & Technologies GmbH & Co. KG, priority 1998, dated 2002).
“Also recorded” adds a separate entry of the source.

Legend:
Type in all cases: biochemical, bovine
[1] = system: poly(A)-specific 3′-exonuclease activity; assay: Conditions for the in-vitro deadenylation: ions and spermidine (1D TLC); conditions: for decrease of activity as compared with the activity in the presence of Mg2+: 1 mM divalent ion, L3(A30) RNA; for decrease of activity as compared with the activity in the presence of Mg2+ / influence on deadenylation activity: Poly(A) Sepharose fraction; for influence on deadenylation activity: tail-labeled L3(A30) RNA
Experimental: (§1) The test conditions for the in-vitro deadenylation were as follows: 1 mM MgCl2, 2.5% (w/v) poly(vinyl alcohol) (Sigma P-8136, Mw 10,000), 100 mM KCl, 0.15 Unit RNAguard, from 5 to 20 fmol of RNA substrate, from 20 to 48% (v/v) buffer (20 mM HEPES (KOH), 0.2 mM EDTA, 0.5 mM DTT, 25% glycerol, pH 7) and the appropriate protein fraction (Åström, J. et al. (1992), see above). The reaction volume was 15 or 25 μl and the incubations were carried out at 30° C. The reactions were then terminated and RNA was purified as described in Moore, C. L. & Sharpe, P. A. (1985), see above. The RNA was analyzed by electrophoresis in 10% polyacrylamide (19:1 acrylamide/bisacrylamide)—7 M urea gels, followed by autoradiography of the resulting gels.
(§2) The deadenylation activity was quantified as follows: L3(A30) RNA substrate, labeled with [α^32P]ATP, was incubated in an in-vitro deadenylation reaction. The reaction products were analyzed by 1D TLC using mobile solvent III (0.75 M K2HPO4, pH 3.5 (H3PO4)). The resulting PEI-Cellulose F plate was dried and scanned in a 400 S Phosphorimager (Molecular Dynamics). The fractions containing released [α^32P]AMP were determined. The quantity, in mol, of released AMP was calculated on the basis of the known specific activity of [α^32P]AMP in the RNA substrate. One unit of deadenylation activity corresponds to the release of 1 pmol of AMP/minute.
The conditions for measuring poly(A) deadenylation activity in accordance with the above-described deadenylation test were determined using Poly(A) Sepharose fractions as the enzyme source and poly(A) tail-labeled L3(A30) RNA as the substrate. The activity was measured in terms of the release of the mononucleotides in the 1D TLC test (see above). The requirement of monovalent (potassium and sodium) and divalent (magnesium, manganese, zinc and calcium) ions for this was investigated.

[2] = system: poly(A)-specific 3′-exonuclease activity; assay: Substrate specificity: Km and Vmax for homopolymer-tailed RNA substrates (Lineweaver-Burke plot); conditions: Poly(A) Sepharose fraction; tail-labeled RNA substrates
Experimental: as §1, §2
The RNA substrate specificity of the activity was investigated in two experiments. In a first experiment, the RNA substrates L3(A30), ML45(U30), ML40(C32) and ML43(G30), whose homopolymeric tails had been radioactively labeled, were incubated in an in-vitro deadenylation test (see above). The release of radioactive mononucleotides was measured in the 1D TLC test (see above). The measurement results were used to calculate the Km and Vmax values for each RNA substrate using the Lineweaver-Burke plot (see Table II). In a second experiment, the substrate specificity was measured by incubating RNA substrates containing internal poly(A) segments, followed by plasmid-encoded RNA sequences of increasing length, with Poly(A) Sepharose fractions in an in-vitro deadenylation test. […] It follows from this that RNA tails composed of adenosine residues are the preferred substrate and that only 3′ end-located poly(A) tails are effectively degraded.

[3] = system: poly(A)-specific 3′-exonuclease activity; assay: Kinetics of the nuclease activity (time course, added poly(A)); conditions: 20 minutes, 0.5 μl Poly(A) Sepharose fraction, L3(A30) RNA
Experimental: FIGS. 5A-C show the ongoing degradation of poly(A). The Poly(A) Sepharose fraction was incubated, under in-vitro deadenylation conditions, with X fmol of the L3(A30) RNA substrate which had been labeled with [α-^32P]UTP during in-vitro transcription. The reaction products were fractionated in a 10% polyacrylamide:bisacrylamide 19:1-7 M urea gel. S and P indicate the migration sites of the RNA substrate (S) and the product (P). […] The indicated quantities of poly(A) in ng were added to the reactions.
The test conditions for the in-vitro deadenylation were as follows: 1 mM MgCl2, 2.5% (w/v) poly(vinyl alcohol) (Sigma P-8136, Mw 10,000), 100 mM KCl, 0.15 Unit RNAguard, from 5 to 20 fmol of RNA substrate, from 20 to 48% (v/v) buffer (20 mM HEPES (KOH), 0.2 mM EDTA, 0.5 mM DTT, 25% glycerol, pH 7) and the appropriate protein fraction (Åström, J. et al. (1992), see above). […] The RNA was analyzed by electrophoresis in 10% polyacrylamide (19:1 acrylamide/bisacrylamide)—7 M urea gels, followed by autoradiography of the resulting gels.
In order to determine whether the nuclease activity degrades RNA substrates in a progressive or distributive manner, the kinetics was first of all determined in an in-vitro deadenylation reaction in the presence of 0.5 μl of a Poly(A) Sepharose fraction and x fmol of L3(A30) RNA substrate which had been labeled overall. […]

Compound	decrease of activity as compared with the activity in the presence of Mg2+ [1] [%]	influence on deadenylation activity [1]	Km [2] [µM]	other results
[Ca+2] [Ca^2+]	0.7	–	–	–
[Mn+2] [Mn^2+]	17	also active in the presence of Mn^2+	–	–
[Zn+2] [Zn^2+]	2	–	–	–
[Mg+2] [magnesium ions]	–	–	–	optimum concentration of ion for deadenylation activity [1]: 1 mM
[K+] [potassium ions]	–	activity is higher in the presence of potassium ions than in the presence of sodium ions	–	–
NCCCCNCCCN [spermidine]	–	no influence on the activity; also recorded: if anything, it is inhibited both at low and at high salt concentrations	–	–
poly(A)	–	–	0.01	effect of added poly(A) on the deadenylation reaction [3]: inhibits the reaction
poly(C)	–	–	0.01	–
poly(G)	–	–	0.007	–
poly(U)	–	–	0.02	–
